Test results as given in paper PMC3602459 (2013).

How the values were obtained:
[1] = tested on: tRNA^phe (yeast) (RNA, tRNA) GCGGAUUUAGCUCAGUUGGGAGAGCGCCAGACUGAAGAUCUGGAGGUCCUGUGUUCGAUCCACAGAAUUCGCACCA; test: fluorescence titration, Benesi-Hildebrand; settings: 10 mM Na+; citrate-phosphate, pH 7.1, 20 °C; apparent; tRNA in nucleotide phosphates; per base
[2] = tested on: tRNA^phe (yeast) (RNA, tRNA) GCGGAUUUAGCUCAGUUGGGAGAGCGCCAGACUGAAGAUCUGGAGGUCCUGUGUUCGAUCCACAGAAUUCGCACCA; test: absorbance titration, Benesi-Hildebrand; settings: 10 mM Na+; citrate-phosphate, pH 7.1, 20 °C; apparent; tRNA in nucleotide phosphates; per base
[3] = tested on: tRNA^phe (yeast) (RNA, tRNA) GCGGAUUUAGCUCAGUUGGGAGAGCGCCAGACUGAAGAUCUGGAGGUCCUGUGUUCGAUCCACAGAAUUCGCACCA; test: ITC; settings: 10 mM Na+; citrate-phosphate, pH 7.0, 20 °C; only background heats, binding negligible
[4] = tested on: tRNA^phe (yeast) (RNA, tRNA) GCGGAUUUAGCUCAGUUGGGAGAGCGCCAGACUGAAGAUCUGGAGGUCCUGUGUUCGAUCCACAGAAUUCGCACCA; test: UV melting, 260 nm; settings: 10 mM Na+; citrate-phosphate, pH 7.0; 50 µM tRNA nucleotides; saturating alkaloid; average Tm 50 °C alone; per base
[5] = tested on: tRNA^phe (yeast) (RNA, tRNA) GCGGAUUUAGCUCAGUUGGGAGAGCGCCAGACUGAAGAUCUGGAGGUCCUGUGUUCGAUCCACAGAAUUCGCACCA; test: fluorescence titration, Scatchard, McGhee-von Hippel cooperative fit; settings: 10 mM Na+; citrate-phosphate, pH 7.1, 20 °C; overall cooperative constant; tRNA in nucleotide phosphates; per base
[6] = tested on: tRNA^phe (yeast) (RNA, tRNA) GCGGAUUUAGCUCAGUUGGGAGAGCGCCAGACUGAAGAUCUGGAGGUCCUGUGUUCGAUCCACAGAAUUCGCACCA; test: absorbance titration, Scatchard, McGhee-von Hippel cooperative fit; settings: 10 mM Na+; citrate-phosphate, pH 7.1, 20 °C; overall cooperative constant; tRNA in nucleotide phosphates; per base
[7] = tested on: tRNA^phe (yeast) (RNA, tRNA) GCGGAUUUAGCUCAGUUGGGAGAGCGCCAGACUGAAGAUCUGGAGGUCCUGUGUUCGAUCCACAGAAUUCGCACCA; test: ITC, single-site fit; settings: 10 mM Na+; citrate-phosphate, pH 7.0, 20 °C; tRNA concentration in nucleotide phosphates; per base

SMILES | KBH [1] [M⁻¹] | KBH [2] [M⁻¹] | binding [3] | ΔTm [4] [°C] | Kiω [5] [M⁻¹] | Kiω [6] [M⁻¹] | Ka [7]
COc1ccc2cc3[n+](cc2c1O)CCc1cc2c(cc1-3)OCO2 | 4200 | 4300 | weak | 2.0 | – | – | –
COc1ccc2cc3[n+](cc2c1OC)CCc1cc2c(cc1-3)OCO2 | 122000 | 114000 | – | 4.5 | 177000 | 169000 | 0.86 ± 0.01 × 10^5 M^-1
COc1ccc2cc3[n+](cc2c1OCC(=O)NCCc1ccccc1)CCc1cc2c(cc1-3)OCO2 | 889000 | 874000 | – | 8.0 | 941000 | 922000 | 8.20 ± 0.04 × 10^5 M^-1
COc1ccc2cc3[n+](cc2c1OCC(=O)NCc1ccccc1)CCc1cc2c(cc1-3)OCO2 | 644000 | 613000 | – | 7.0 | 658000 | 640000 | 7.17 ± 0.03 × 10^5 M^-1
COc1ccc2cc3[n+](cc2c1OCC(=O)Nc1ccccc1)CCc1cc2c(cc1-3)OCO2 | 404000 | 425000 | – | 6.5 | 427000 | 434000 | 4.67 ± 0.03 × 10^5 M^-1
